What was measured:
MDA-MB-231 = assay: MTT cytotoxicity assay, MDA-MB-231 (1st panel); assay type: cell-based, human
Experimental: (§1) Cell survival was measured as the percentage absorbance compared to the control (nontreated cells). […]
(§2) SI indexes were calculated from equation SI = IC50 normal cell line HDF/IC50 respective cancerous cell line (Table 2). A beneficial SI > 1.0 indicates a compound with efficacy against tumor cell greater than the toxicity against normal cells.
(§3) All experiments were carried out with human breast adenocarcinoma (MDA-MB-231 and MCF-7), hepatocellular carcinoma (HepG2), human cervical adenocarcinoma (HeLa) cancer cell lines, and human normal lung fibroblast (CCD39Lu) cell line. The cell line was purchased from the European Collection of Cells Cultures (ECACC, Salisbury, UK), and cultured in DMEM with phenol red supplemented with 10% (v/v) FBS, 1% (v/v) penicillin/streptomycin, and 1% (v/v) L-glutamine at 37 °C, in a humidified atmosphere containing 5% CO2.
(§4) The tested compounds were dissolved in DMSO to the final concentration 10 mM and stored […]
(§5) The cytotoxic effect of the tested compounds was determined by MTT assay. MDA-MB-231, MCF-7, HepG2, HeLa, and CCD39Lu cells were seeded in 96 wells plates at density 2x10^4 cells/well and incubated overnight under cell culture condition. Next, cells were treated with tested compounds at concentrations of 10 µM; 5 µM; 2.5 µM; 1.2 µM; 0.6 µM; 0.3 µM; 0.15 […]
(§6) µM. Moreover, GDM (for MCF-7) and 8 (for MCF-7 and MDA-MB-231) due to high cytotoxicity, were additionally tested at a lower concentration range of 2.5 µM; 1.2 µM; 0.6 µM; 0.3 µM; 0.15µM; 0.07 µM; 0.03 µM. DMSO was used as a control, and the concentration […]
(§7) Tested compounds were added to cells in the medium without phenol red. Cells were incubated 72 h at 37 °C in a humidified atmosphere containing 5% CO2.
(§8) Then, the medium was aspirated and MTT solution at a concentration of 0.59 mg/mL in cell culture medium was added to each well. Plates were incubated for 1.5 hours at 37 °C, and then plates were centrifuged for 3 minutes. The formazan crystals were dissolved in 200 µl DMSO and plates were agitated on a plate shaker at 300 –500 rpm for 10 minutes. Absorbance at 570 nm was measured using a plate reader (Biotek Instruments, Elx -800). Data were normalized to the mean absorption of control cells. All experiments were performed at least three times. […]

MCF-7 = assay: MTT cytotoxicity assay, MCF-7 (1st panel); assay type: cell-based, human
Experimental: as §1, §2, §3, §4, §5, §6, §7, §8

HeLa = assay: MTT cytotoxicity assay, HeLa (1st panel); assay type: cell-based, human
Experimental: as §1, §2, §3, §4, §5, §6, §7, §8

HepG2 = assay: MTT cytotoxicity assay, HepG2 (1st panel); assay type: cell-based, human
Experimental: as §1, §2, §3, §4, §5, §6, §7, §8

CCD39Lu = assay: MTT cytotoxicity assay, normal lung fibroblasts CCD39Lu; assay type: cell-based; settings: Fibroblast, ± SD, healthy human lung fibroblasts, 72 h, read-out: IC50 CCD39Lu (toxicity in normal cells)
Experimental: as §1, §2, §3, §4, §5, §6, §7, §8

SKBR-3 = assay: SRB cytotoxicity assay, SKBR-3 (2nd panel); assay type: cell-based, human
Experimental: (§9) Human cancer cells SKBR-3 (human breast cancer cell line) and SKOV-3 (ovarian cancer cell line) were cultured in McCoy’s Modified Medium. […]
(§10) Medium. Human Dermal Fibroblasts cell line (HDF) was cultured in Fibroblast Basal Medium.
(§11) Each medium was supplemented with 10% fetal bovine serum, 1% L-glutamine, and 1% penicillin/streptomycin solution. The cell lines were kept in the incubator at 37◦C. The optimal plating density of cell lines was determined to be 5 × 104. All the cell lines and mediums were obtained from American Type Culture Collection (ATCC) supplied by LGC-Standards. The protein-staining SRB (Sigma-Aldrich) microculture colorimetric assay, developed by the National Cancer Institute (USA) for in vitro antitumor screening was used in this study, to estimate the cell number by providing a sensitive index of total cellular protein content, being linear to cell density. The monolayer cell culture was trypsinized and the cell count was adjusted to 5 × 10^4 cells. To each well of the 96 well microtiter plate, 0.1 mL of the diluted cell suspension (approximately […]) was added. After 24 hours, when a partial monolayer was formed, the supernatant was washed out and 100 μL of six different compound concentrations (0.1, 0.2, 1, 2, 10, and 20 μM) were added to the cells in microtitre plates. The tested compounds were dissolved in DMSO (containing 10 % of water) (100 μL) and the […]
(§12) lines. The cells were exposed to compounds for 72 hours at 37 °C in a humidified atmosphere (90% RH) containing 5% CO2. After that, 25 μL of 50 % trichloroacetic acid was added to the wells and the plates were incubated for 1 hour at 4◦C. The plates were then washed out with the distilled water to remove traces of medium and next dried by the air. The air-dried plates were stained with 100 μL of 0.4% sulforhodamine B (prepared in 1 % acetic acid) and kept for 30 minutes at room temperature. The unbound dye was removed by rapidly washing with 1% […]
(§13) acetic acid and then air dried overnight. The protein-bound dye was dissolved in 100 μL of 10 mM unbuffered Tris base (pH 10.5) for optical density determination at 490 nm. All cytotoxicity experiments were performed three times. Cell survival was measured as the percentage absorbance compared to the control (nontreated cells). Cytarabine (ara-C) and GDM were used as the internal standards. Additionally biological assays were performed in Human Dermal Fibroblasts cell line (HDF) in aim to evaluate cytotoxicity of GDM and its 1-13 analogs in healthy cells. SI indexes were calculated from equation SI = IC50 normal cell line HDF/IC50 respective cancerous cell line (Table 2). A beneficial SI > 1.0 indicates a compound with efficacy against tumor cell greater than the toxicity against normal cells. […]

SKOV-3 = assay: SRB cytotoxicity assay, SKOV-3 (2nd panel); assay type: cell-based, human
Experimental: as §9, §10, §11, §12, §13

PC-3 = assay: SRB cytotoxicity assay, PC-3 (2nd panel); assay type: cell-based, human
Experimental: as §10, §11, §12, §13

U-87 = assay: SRB cytotoxicity assay, U-87 (2nd panel); assay type: cell-based, human
Experimental: U-87MG cells (glioblastoma cell line) were cultured in Eagle’s Minimal Essential Medium. Human Dermal Fibroblasts cell line (HDF) was cultured in Fibroblast Basal Medium.
as §11, §12, §13

A-549 = assay: SRB cytotoxicity assay, A-549 (2nd panel); assay type: cell-based, human
Experimental: as §10, §11, §12, §13

HDF = assay: SRB cytotoxicity assay, human dermal fibroblasts HDF; assay type: cell-based; settings: 72 h, ± SD, mixtures equimolar 1:1, read-out: IC50 HDF (toxicity in normal cells)
Experimental: as §10, §11, §12, §13

In the case of COC1=C2C[C@@H](C)C[C@H](OC)[C@H](O)[C@@H](C)/C=C(\C)[C@H](OC(N)=O)[C@@H](OC)/C=C\C=C(/C)C(=O)NC(=CC1=O)C2=O [GDM, Geldanamycin], the IC50 (MDA-MB-231; Homo sapiens, MDA-MB-231, ± SD, MTT, 72 h) is reported as 1040 ± 630 nM, the “selectivity index SI (MDA-MB-231)” value (MDA-MB-231; IC50 normal cell line CCD39Lu/IC50 MDA-MB-231) is reported as 8.17 and the IC50 (MCF-7; Homo sapiens, MCF7, 72 h, ± SD, MTT, 72 h) is reported as 3510 ± 210 nM. The “selectivity index SI (MCF-7)” value (MCF-7; IC50 normal cell line CCD39Lu/IC50 MCF-7) was 2.42, the IC50 (HeLa; Homo sapiens, HeLa, ± SD, MTT, 72 h) was 1420 ± 100 nM and the “selectivity index SI (HeLa)” value (HeLa; IC50 normal cell line CCD39Lu/IC50 HeLa) was 5.99. The IC50 (HepG2; Homo sapiens, HepG2, ± SD, MTT, 72 h) was 740 ± 320 nM, the “selectivity index SI (HepG2)” value (HepG2; IC50 normal cell line CCD39Lu/IC50 HepG2) was 11.48 and the IC50 (CCD39Lu) was 8500 ± 250 nM. The IC50 (SKBR-3; Homo sapiens, SK-BR-3, ± SD, SRB, 72 h, mixtures equimolar 1:1) was 870 ± 170 nM, the “selectivity index SIHDF (SKBR-3)” value (SKBR-3; IC50 normal cell line HDF/IC50 SKBR-3) was 2.45 and the IC50 (SKOV-3; Homo sapiens, SK-OV-3, ± SD, SRB, 72 h, mixtures equimolar 1:1) was 940 ± 90 nM. For the same compound, the “selectivity index SIHDF (SKOV-3)” value (SKOV-3; IC50 normal cell line HDF/IC50 SKOV-3) was 2.27, the IC50 (PC-3; Homo sapiens, PC-3, ± SD, SRB, 72 h, mixtures equimolar 1:1) was 730 ± 10 nM and the “selectivity index SIHDF (PC-3)” value (PC-3; IC50 normal cell line HDF/IC50 PC-3) was 2.92. For the same compound, the IC50 (U-87; Homo sapiens, U-87 MG, ± SD, SRB, 72 h) was 810 ± 120 nM, the “selectivity index SIHDF (U-87)” value (U-87; IC50 normal cell line HDF/IC50 U-87) was 2.62 and the IC50 (A-549; Homo sapiens, A549, ± SD, SRB, 72 h) was 990 ± 10 nM. For the same compound, the “selectivity index SIHDF (A-549)” value (A-549; IC50 normal cell line HDF/IC50 A-549) was 2.15, the CC50 (HDF) was 2130 ± 110 nM and the “Solubility SH2O” value (Water solubility SH2O) was “almost water-insoluble”.

From publication PMC8344233, “Anticancer activity and toxicity of new quaternary ammonium geldanamycin derivative salts and their mixtures with potentiators” (Journal of Enzyme Inhibition and Medicinal Chemistry, 2021)
